Results on one molecule are retold here after patent US8389503B2, “Steroidal antitubercular compounds” (priority 2011, dated 2013).

≈ marks a conversion by molar mass, not a printed value.

For series [1], the system named is Mycobacterium tuberculosis H37Rv (ATCC 27294). Description: Primary screen (dose response), Microplate Alamar Blue Assay (MABA), Level-I antituberculosis assay. It is filed as cell-based. The settings on record: M. tuberculosis H37Rv, BACTEC 12B medium, concentration reducing fluorescence 90% relative to controls. The method, then:
Primary Screen (Dose Response): Determination of a 90% Inhibitory Concentration (IC90). The initial screen is conducted against Mycobacterium tuberculosis H37Rv (ATCC 27294) in BACTEC 12B medium using the Microplate Alamar Blue Assay (MABA). Compounds are tested in ten 2-fold dilutions, typically from 100 μg/mL to 0.19 μg/mL. The IC90 is defined as the concentration effecting a reduction in fluorescence of 90% relative to controls. This value is determined from the dose-response curve using a curve-fitting program. Any IC90 value of ≦10 μg/mL is considered “Active” for antitubercular activity.

In the case of `CCCCCCOC(=O)c1ccc(OC2CC[C@@]3(C)C(=CC[C@H]4[C@@H]5CC[C@H]([C@H](C)C=C[C@@H](CC)C(C)C)[C@@]5(C)CC[C@@H]43)C2)cc1` (some centres unmarked) [Compound I, n-hexyl-p-stigmasteryloxy-benzoate], in series [1], the “IC90 (90% inhibitory concentration)” value was determined as 6.25 µg/mL (≈ 10.1 µM). Also, in the series on VERO cells, the “CC50 (mammalian cell cytotoxicity)” value came to 79.59 µg/mL (≈ 129 µM).
